Source: patent US20260041683A1, “Compounds with Anti-Acinetobacter Baumannii Activity” (University of Kentucky Research Foundation, priority 2022, published 2026)
In brackets after ≈: the same amount, converted by molar mass. Read-outs that look alike come from different tables or passages of the source.

Key:
Ab ATCC 19606 (strain I) = assay: MIC determination (double dilution, Mueller-Hinton broth); type: cell-based, Acinetobacter baumannii; details: Acinetobacter baumannii, ATCC19606
[1] = tested on: Ab ATCC BAA1605 (strain J, multidrug-resistant); assay: MIC determination; type: cell-based; details: Acinetobacter baumannii
In short: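 Broth double-dilution MIC in Mueller-Hinton broth, 96-well plates, at least in duplicate. Inoculum: colonies grown overnight at 37 °C on MH plates, suspended to OD600 ~0.5 and diluted 1:1000 into serially doubly diluted compound.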

P. aeruginosa ATCC 27853 = assay: MIC determination; type: cell-based; details: Pseudomonas aeruginosa, ATCC27853
B. anthracis Sterne F32 = assay: microbe, parasite or virus in culture; type: cell-based; details: Bacillus anthracis
S. enterica ATCC 14028 = assay: MIC determination; type: cell-based; details: Salmonella enterica, ATCC14028
[2] = tested on: S. epidermidis ATCC 12228; assay: MIC determination; type: cell-based; details: Staphylococcus epidermidis, ATCC12228
S. aureus ATCC 25923 = assay: MIC determination; type: cell-based; details: Staphylococcus aureus, ATCC25923
E. coli MC1061 = assay: MIC determination; type: cell-based; details: Escherichia coli; Table 5; Mueller-Hinton medium; D = E. coli MC1061; read-out: MIC strain D
Ab ATCC 19606 [3] = assay: Development of resistance, 15-passage MIC assay; type: cell-based, Acinetobacter baumannii; details: Acinetobacter baumannii, ATCC19606, read-out: MIC before passaging
Ab ATCC 19606 [4] = assay: Time-kill curves
[5] = tested on: all 43 strains of A. baumannii (41 CDC strains and 2 ATCC strains); assay: MIC value statistics for all A. baumannii strains; type: cell-based, Acinetobacter baumannii; details: of 43 A. baumannii strains
In short: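 Broth microdilution in MH broth against CDC AR Isolate Bank and ATCC strains. Inoculum from overnight MH plates (37 °C), suspended to OD600 ~0.5, then diluted 1:1000 into serial twofold compound dilutions. Sterile and growth controls included per row.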

[6] = tested on: murine red blood cells (mRBCs); assay: Hemolysis assay; type: cell-based; details: 32 g/mL as printed, 37° C.
Procedure: The cells were then washed using PBS (3×) by spinning at 1,000 rpm for 7 min. After washing, mRBCs were counted using a hemacytometer and diluted in PBS to 5×10^7 cells/mL. All the tested compounds were diluted (32 μg/mL and 8 μg/mL) in PBS in Eppendorf tubes (500 μL volume) and 100 μL were added to each of the columns of the 96-well plate except for column 1. A positive control (1% Triton-X®, TX), a negative control (DMSO), and wells with no mRBCs to account for any background absorbance were used in the 96-well plate. After the addition of the compounds to the plate, 100 μL of mRBCs were added to each well and plates were incubated at 37° C. for 30 min. The plates were then spun at 1,000 rpm for 10 min till the mRBCs settle at the bottom of the plates. 100 μL of supernatant was then transferred to a new 96-well plate and the absorbance at 500 nm was read using a spectrophotometer (SpectraMax M5). Percent hemolysis was calculated using the following equation after subtraction of the background absorbance.
To test the safety of the compounds, they were for exampled for hemolytic effect on murine red blood cells (FIG. 7).

[7] = tested on: human embryonic kidney cells (HEK-293); assay: Mammalian cytotoxicity assay (resazurin); details: HEK-293, 32 μg/mL (printed 32 g/mL for 3e), 24 h
K. pneumoniae ATCC 27736 = assay: MIC determination; type: cell-based; details: Klebsiella pneumoniae, ATCC27736
E. coli ATCC BAA 2469 = assay: MIC determination; type: cell-based; details: Escherichia coli, BAA2469; Table 3
[8] = tested on: K. pneumoniae ATCC BAA 1705; assay: MIC determination; type: cell-based; details: Klebsiella pneumoniae, BAA1705; Table 3
E. cloacae ATCC 13047 = assay: MIC determination; type: cell-based; details: Enterobacter cloacae, ATCC13047
Gram-negative bacteria = assay: MIC determination, panel statement; type: cell-based; details: moderate activity
Y. pestis CO92 = assay: microbe, parasite or virus in culture; type: cell-based; details: Yersinia pestis, CO92, read-out: MIC Y. pestis CO92
M. smegmatis = assay: MIC determination; type: cell-based, Mycobacterium smegmatis; details: Mycolicibacterium smegmatis; Table 4
[9] = tested on: all 41 multidrug-resistant Ab strains (#273-313) from the CDC and FDA AR Bank; assay: MIC determination, panel statements; type: cell-based; details: Acinetobacter baumannii; Table 2 note; almost all of the 41 strains; read-out: MIC values against almost all strains
Procedure: All bacterial strains listed above were stored at −80° C. All strains were streaked on Mueller-Hinton (MH) plates and allowed to grow at 37° C. overnight. Enough colonies were scraped from the plate and suspended in MH broth with vortexing to reach an attenuance at 600 nm (OD600) of ˜0.5. The resulting culture was diluted 1:1000 and added to the prepared serially doubly diluted compound solutions in 96-well plates. For M. smegmatis, a 1:100 dilution of the bacteria was done in MH. All MIC values were determined using 96-well plates with low evaporation seals at least in duplicate. For each row, one well was reserved for sterile control (which consisted of 200 μL of MH medium) and another well was reserved for growth control (which consisted of 100 μL of MH medium seeded with 100 μL of bacterial culture).
Then all 46 compounds were tested against a broad panel of all 41 Ab strains from the CDC and FDA Antibiotic Resistance (AR) Isolate Bank (Table 2; data shown for 2 representative compounds), which were all highly multidrug-resistant strains, including those resistant to colistin. […] The activity of the monohydrazides was not dependent on the extent (number of resistance mutations) or severity (antibiotic MIC) of resistance. All conclusions made from Table 1 remained valid for all compounds against these 41 additional Ab strains. […]

[10] = Table 5, Mueller-Hinton medium, I = A. baumannii ATCC 19606, read-out: MIC strain I
[11] = Table 5, Mueller-Hinton medium, J = A. baumannii BAA1605, read-out: MIC strain J
[12] = Table 5, Mueller-Hinton medium, G = P. aeruginosa ATCC 27853, read-out: MIC strain G
[13] = STERNEF32, read-out: MIC strain A
[14] = Table 5, Mueller-Hinton medium, H = S. enterica ATCC 14028, read-out: MIC strain H
[15] = Table 5, Mueller-Hinton medium, C = S. epidermidis ATCC 12228, read-out: MIC strain C
[16] = Table 5, Mueller-Hinton medium, B = S. aureus ATCC 25923, read-out: MIC strain B
[17] = Table 1, control strain, read-out: MIC Ab ATCC 19606
[18] = Table 1, multidrug-resistant strain, read-out: MIC Ab ATCC BAA 1605
[19] = Table 3, positive control strain, read-out: MIC A. Baumannii ATCC BAA 1605
[20] = Table 3, read-out: MIC K. pneumoniae ATCC 27736
[21] = Table 5, Mueller-Hinton medium, F = K. pneumoniae ATCC 27736, read-out: MIC strain F
[22] = Table 3, read-out: MIC P. aeruginosa ATCC 27853
[23] = Table 5, Mueller-Hinton medium, E = E. cloacae ATCC 13047, read-out: MIC strain E
[24] = STERNEF32, read-out: MIC B. anthracis Sterne F32
[25] = Table 4, read-out: MIC S. enterica ATCC 14028
[26] = Table 4, read-out: MIC E. cloacae ATCC 13047
[27] = Table 4, read-out: MIC S. epidermidis ATCC 12228
[28] = Table 4, read-out: MIC S. Aureus ATCC 25923

SMILES | MIC (Ab ATCC 19606 (strain I); [10]) [µg/mL] | MIC [1, 11] [µg/mL] | MIC (P. aeruginosa ATCC 27853; [12]) [µg/mL] | MIC (B. anthracis Sterne F32; [13]) [µg/mL] | MIC (S. enterica ATCC 14028; [14]) [µg/mL] | MIC [2, 15] [µg/mL] | MIC (S. aureus ATCC 25923; [16]) [µg/mL] | MIC (E. coli MC1061) [µg/mL] | number of compound/strain combinations with MIC value 0.25 μg/mL [5] | number of compound/strain combinations with MIC value 0.5 μg/mL [5] | number of compound/strain combinations with MIC value 1 μg/mL [5] | MIC (Ab ATCC 19606 (strain I); [17]) [µg/mL] | MIC [1, 18] [µg/mL] | MIC [1, 19] [µg/mL] | MIC (K. pneumoniae ATCC 27736; [20]) [µg/mL] | MIC (K. pneumoniae ATCC 27736; [21]) [µg/mL] | MIC (P. aeruginosa ATCC 27853; [22]) [µg/mL] | MIC (E. coli ATCC BAA 2469) [µg/mL] | MIC [8] [µg/mL] | MIC (E. cloacae ATCC 13047; [23]) [µg/mL] | further results
O=C(O)c1cn(C2CC2)c2cc(N3CCNCC3)c(F)cc2c1=O [CIP, ciprofloxacin, reference compound] | 1 (≈ 3.02 µM) | 2 (≈ 6.04 µM) | 0.25 (≈ 0.754 µM) | 1 (≈ 3.02 µM) | ≤ 0.0625 | ≤ 0.0625 | ≤ 0.0625 | ≤ 0.0625 | – | – | – | – | – | – | – | – | – | – | – | – | MIC (Ab ATCC 19606 [3]): 2 µg/mL (≈ 6.04 µM); bacteriostatic or bactericidal (time-kill) (Ab ATCC 19606 [4]; 1×MIC and 4×MIC, up to 24 h): bactericidal; reduction of colony count (Ab ATCC 19606 [4]; time-kill): 4100 fold
O=C(NNc1cccc(F)c1)c1ccc2ccccc2n1 [Compound 12a] | – | – | – | – | – | – | – | – | 8 | 21 | 14 | – | – | – | – | – | – | – | – | – | hemolysis [6]: 20%; inhibition of growth [7]: 40%
O=C(NNc1cccc(Cl)c1)c1ccccn1 [Compound 2b] | 2 (≈ 8.07 µM) | 1 (≈ 4.04 µM) | > 64 | > 64 | 16 (≈ 64.6 µM) | > 64 | > 64 | 4 (≈ 16.1 µM) | 13 | 13 | 12 | 2 (≈ 8.07 µM) | < 0.5 | ≤ 0.5 | 8 (≈ 32.3 µM) | 16 (≈ 64.6 µM) | > 128 | 8 (≈ 32.3 µM) | 16 (≈ 64.6 µM) | 4 (≈ 16.1 µM) | number of compound/strain combinations with MIC value 2 μg/mL [5]: 3; number of compound/strain combinations with MIC value ≤0.125 μg/mL [5]: 2; MIC (Gram-negative bacteria): 4 to 16 µg/mL (≈ 16.1 to 64.6 µM)
NC[C@H]1O[C@H](O[C@H]2[C@H](O)[C@@H](O[C@H]3O[C@H](CO)[C@@H](O)[C@H](N)[C@H]3O)[C@H](N)C[C@@H]2N)[C@H](O)[C@@H](O)[C@@H]1O [KAN, kanamycin, reference compound] | – | – | – | – | – | – | – | – | – | – | – | 5 (≈ 10.3 µM) | 10 (≈ 20.6 µM) | 32 (≈ 66 µM) | 4 (≈ 8.26 µM) | – | > 128 | > 128 | > 128 | – | MIC (B. anthracis Sterne F32; [24]): > 160 µg/mL; MIC (S. enterica ATCC 14028; [25]): 2.5 µg/mL (≈ 5.16 µM); MIC (E. cloacae ATCC 13047; [26]): 1.25 µg/mL (≈ 2.58 µM); MIC [2, 27]: 0.63 µg/mL (≈ 1.3 µM); MIC (S. aureus ATCC 25923; [28]): 0.63 µg/mL (≈ 1.3 µM); MIC (Y. pestis CO92): 2.5 µg/mL (≈ 5.16 µM); MIC (M. smegmatis): ≤ 0.03 µg/mL; MIC [9]: > 10 µg/mL
O=C(NNc1ccc(Cl)cc1)c1ccccn1 [Compound 2e] | 0.25 (≈ 1.01 µM) | 0.25 (≈ 1.01 µM) | > 64 | > 64 | 64 (≈ 258 µM) | > 64 | > 64 | 16 (≈ 64.6 µM) | 16 | 21 | 1 | 0.25 (≈ 1.01 µM) | 0.25 (≈ 1.01 µM) | – | – | 64 (≈ 258 µM) | – | – | – | 64 (≈ 258 µM) | MIC (B. anthracis Sterne F32; [24]): > 16 µg/mL; MIC (S. enterica ATCC 14028; [25]): > 16 µg/mL; MIC (E. cloacae ATCC 13047; [26]): > 16 µg/mL; MIC [2, 27]: > 16 µg/mL; MIC (S. aureus ATCC 25923; [28]): > 16 µg/mL; MIC (Y. pestis CO92): 16 µg/mL (≈ 64.6 µM); MIC (M. smegmatis): 4 µg/mL (≈ 16.1 µM); number of compound/strain combinations with MIC value ≤0.125 μg/mL [5]: 5
